Measurements taken from patent publication US20250154212A1, “METHOD OF DISRUPTING MEMORY AND LIPOPEPTIDE FOR USE IN SUCH METHOD” (The Research Foundation for The State University of New York, priority 2023, published 2025).
Where no end group is shown, it is not given here. The star is where a group is joined. Myristoyl = CCCCCCCCCCCCCC(=O)*

Target: T1, KIBRA-PKCι/λ interaction (Homo sapiens, UniProt P41743)
T1 construct: expressed in transfected cells; host or cells: HEK293T
T1 sequence (P41743 10-596): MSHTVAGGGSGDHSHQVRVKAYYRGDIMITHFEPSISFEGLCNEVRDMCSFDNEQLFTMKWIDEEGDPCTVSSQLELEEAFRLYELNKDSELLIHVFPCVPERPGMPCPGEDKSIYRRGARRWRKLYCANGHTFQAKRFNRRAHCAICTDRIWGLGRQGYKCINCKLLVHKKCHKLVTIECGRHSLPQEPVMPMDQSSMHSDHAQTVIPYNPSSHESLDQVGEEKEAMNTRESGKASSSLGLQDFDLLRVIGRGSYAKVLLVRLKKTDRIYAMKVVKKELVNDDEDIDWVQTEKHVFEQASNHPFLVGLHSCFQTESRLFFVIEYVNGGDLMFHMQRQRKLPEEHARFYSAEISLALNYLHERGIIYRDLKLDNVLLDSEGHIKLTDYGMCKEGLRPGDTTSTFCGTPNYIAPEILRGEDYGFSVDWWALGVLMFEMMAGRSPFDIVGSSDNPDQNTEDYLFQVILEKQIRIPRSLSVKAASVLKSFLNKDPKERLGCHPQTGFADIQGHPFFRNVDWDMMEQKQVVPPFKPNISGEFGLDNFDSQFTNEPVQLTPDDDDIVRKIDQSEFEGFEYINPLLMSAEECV
Assay: BiFC assay of KIBRA-PKCι/λ interaction in HEK293T cells
Assay type: cell-based
Conditions: 10 μM
Protocol: KIBRA-PKMζ BiFC was performed as previously described (28), using pVen1-FLAG-KIBRA and pVen2-HA-PKMζ, in which PKMζ was cloned between EcoR1 and BamH1 sites. The constructs pVen1 and pVen2 encode the N-terminus (amino acids 1-154) and C-terminus (amino acids 155-238) of the Venus protein, respectively, and the Venus fragments were on the N-terminal of the fusion proteins. pVen2-HA-PKMζ[PKCι/λ-P291Q;F297S] was generated by site-directed mutagenesis using forward-cctggagAagcAAatceggatcccccggtCcctgtccgte and reverse-gacggacaggGaccgggggatccggatTTgctTctccagg primers and the QuickChange II XL Site-Directed Mutagenesis Kit (Agilent Technologies), following manufacturer's instructions. Additional pVen2-HA-PKC isoforms and pVen2-HA-CaMKIIα in the pVen2-HA vector were generated by cloning the N-terminus of the coding sequence of each kinase (table S1) to obtain an in-frame fusion at the C-terminus of the pVen2-HA. Human versions of KIBRA and kinases were used, and all PCR amplified sequences and constructs were verified by DNA sequencing.
HEK293T cells were cultured in Dulbecco's Modified Eagle's Medium supplemented with 10% heat-inactivated fetal bovine serum, 100 U/ml penicillin, […] streptomycin, 2 mM glutamine, and 10 mM HEPES in a T75 tissue culture flask with canted neck and ventilated cap. Twenty-four hours prior to transfection, 1×10^5 HEK293T cells in 1 ml of media were plated on poly-D-lysine-treated coverslips in 24-well plates. One hour prior to transfection, 0.5 ml of the media was removed from each well, and ζ-stat or K-ZAP was added to the media that had been removed. The remaining media in each well was then discarded and substituted with the 0.5 ml pre-conditioned media containing ζ-stat or K-ZAP at designated concentrations. For transfection a total of 50 ng of DNA was delivered to each well using Lipofectamine 3000 (Invitrogen) and OptiMEM 1× reduced serum medium (Invitrogen) at a plasmid-to-plasmid ratio of 1:1. The amount of transfected DNA was optimized to produce relatively low concentrations of proteins during overexpression. […]

| Compound | effect on KIBRA-PKCι/λ interaction (BiFC) (listed as C-stat) | effect on KIBRA-PKCι/λ interaction (BiFC) (listed as z-stat) | effect on KIBRA-PKCι/λ interaction (BiFC) |
| --- | --- | --- | --- |
| O=S(=O)(O)c1cc(O)c2c(S(=O)(=O)O)cc(S(=O)(=O)O)cc2c1 [ζ-stat, 1-naphthol-3,6,8-trisulphonic acid] | no measurable effect | has no effects | – |
| myr-N-FVRNSLERRSVRMKRPS-C (Myristoyl-FVRNSLERRSVRMKRPS) [K-ZAP] | – | – | not measurably affected |
